Laboratory results published in US20110212235A1, “ANTIMICROBIAL SALT SOLUTIONS FOR CHEESE PROCESSING APPLICATIONS” (priority 2006, published 2011).

Legend:
Assay type in all cases: cell-based
[1] = test system: green mold/white yeast mixture; assay: “Mold” procedure, green mold/white yeast mixture; settings: for Green Mold + Yeast count: after 4 hours in blue cheese brine, Table 20, inoculum 5.8 × 10^6 (est)
Experimental: (§1) In the present example, cultures of various microorganisms native to actual process brines used in cheese manufacture were obtained from a cheese plant. The cultures of yeast, mold, and coliforms were grown and used to test the efficacy of various antimicrobial additives in blue cheese brines. Organism cultures included four different types of yeast (three distinct while yeast cultures and a pink yeast), a black mold culture, a coliform culture, a culture of mixed green mold and yeast that were not separated, and a culture that was identified by the cheese plant as heterofermentative lactic acid bacteria, although no actual identification of the strain was carried out.
(§2) “Mold” Procedure: • 1. From refrigerated stock mold cultures, take 1 ml from black mold dilution bottle added to 99 ml of cold Butterfield's Phosphate Buffered Water (PBW) to obtain 10^5 cfu/ml. • 2. Take 1 ml from green mold/white yeast mixture dilution bottle added to 99 ml of cold Butterfield's Phosphate Buffered Water (PBW) to obtain 10^6 cfu/ml. • 3. Plate serial dilutions of the cultures to get the starting count of the inoculum on Dichloran-Rose Bengal-Chloramphenicol Agar (DRBC). • 4. Add 1 ml of the diluted mold culture to 100 ml of cold test solution (do separately for each of the two mold cultures). • 5. Determine the population at time 0 and 4 hours. Spread plate serial dilutions to DRBC agar. • 6. Incubate the test solutions at 10° C.+/−2° C. for the duration of the experiment. • 7. Incubate the plates at 20° C.+/−2° C. for 5 days+/−2 hours. • 8. Count representative colonies and multiply by the dilution factor. Note: For black mold, each test solution should contain ˜10^3 cfu/ml. For green mold/white yeast mixture, each test solution should contain ˜10^4 cfu/ml.
Screening tests identified octanoic acid as a promising antimicrobial additive for salt brines. Table 16 gives results of a challenge test run on actual blue cheese and mozzarella process brine samples sent from a cheese plant. The brines were treated with different concentrations of octanoic acid and then challenged with a yeast cocktail (which included the pink and 3 different white mold types), the green mold+yeast combination, and coliforms. […] The plate counts listed parenthetically as (est) were too numerous to count and were estimated.

[2] = test system: yeast cocktail (Raised, Rough and Flat white yeast and a pink yeast); assay: “Yeast” procedure, yeast cocktail
From the text: In the present example, cultures of various microorganisms native to actual process brines used in cheese manufacture were obtained from a cheese plant. […] Organism cultures included four different types of yeast (three distinct while yeast cultures and a pink yeast), a black mold culture, a coliform culture, a culture of mixed green mold and yeast that were not separated, and a culture that was identified by the cheese plant as heterofermentative lactic acid bacteria, although no actual identification of the strain was carried out.
(§3) “Yeast” Procedure: • 1. Inoculate a separate tube containing 10 ml of Brain Heart Infusion (BHI) broth for each wild type (Raised, Rough and Flat white yeast along with a single pink yeast). Incubate for 5 days at 26° C.+/−2° C. • 2. Assume growth to be 10^7 cfu/ml. Since 4 cultures are being used, combine 2.75 ml of each culture added to 99 ml of cold Butterfield's Phosphate Buffered Water (PBW) to obtain 10^6 cfu/ml of yeast cocktail. • 3. Plate serial dilutions of the culture to get the starting count of the inoculum on Dichloran-Rose Bengal-Chloramphenicol Agar (DRBC). • 4. Add 1 ml of the diluted cocktail to 100 ml of cold test solution. • 5. Determine the population at time 0 and 4 hours. Spread plate serial dilutions to DRBC agar. • 6. Incubate the test solutions at 10° C.+/−2° C. for the duration of the experiment. • 7. Incubate the plates at 20° C.+/−2° C. for 5 days+/−2 hours. • 8. Count representative colonies and multiply by the dilution factor. Note: Each test solution should contain ˜10^4 cfu/ml.
(§4) The brines were treated with different concentrations of octanoic acid and then challenged with a yeast cocktail (which included the pink and 3 different white mold types), the green mold+yeast combination, and coliforms.

[3] = test system: wild type coliforms from cheese plant brine; assay: Coliforms procedure in cheese brine or buffered solution; settings: for Coliforms count: Table 21 (sodium octanoate experiment)
Experimental: as §1
Coliforms Procedure: • 1. Inoculate a separate tube containing 10 ml of Brain Heart Infusion (BHI) broth for each wild type coliforms 1 and 2. Incubate for 24+/−2 hours at 35° C.+/−2° C. • 2. Assume growth to be 10^9 cfu/ml. Since two cultures are being used, combine 5.5 ml of each culture added to 99 ml of cold Butterfield's Phosphate Buffered Water (PBW) to obtain 10^8 cfu/ml. • 3. Plate serial ten-fold dilutions of the culture to get the starting count of the inoculum on Violet Red Bile Agar (VRBA). • 4. Add 1 ml of the diluted cocktail to 100 ml of cold test solution. • 5. Determine the population at time 0 and 4 hours by plating serial dilutions to VRBA spread plates. • 6. Incubate the test solutions at 10° C.+/−2° C. for the duration of the experiment. • 7. Incubate the plates at 20° C.+/−2° C. for 72+/−2 hours. • 8. Count representative colonies and multiply by the dilution factor. Note: Each test solution should contain ˜10^8 cfu/ml.
as §4

Pink Yeast = assay: Yeast challenge, pink yeast
Experimental: as §3
(§5) In order to determine if the effect of the additive was repeatable, more challenge tests were run on samples of process brine. […] In this test the solutions were challenged with two distinct yeast (a white and a pink) types and coliforms from the samples sent by the cheese plant.

[4] = test system: wild type coliforms from cheese plant brine; assay: Coliforms procedure in cheese brine or buffered solution; settings: after 4 hours in mozzarella cheese brine
black mold = assay: “Mold” procedure, black mold; settings: after 4 hours in blue cheese brine; Table 20; inoculum 2.5 × 10^4 (est)
Experimental: as §1, §2

White Yeast = assay: Yeast challenge, white yeast
Experimental: as §3, §5

[5] = test system: heterofermentative lactic acid bacteria (not identified); assay: “Lactic Bacteria” procedure in cheese brine; settings: after 4 hours in blue cheese brine; Table 20; inoculum 1.2 × 10^7 (est)
Experimental: as §1
“Lactic Bacteria” Procedure: • 1. Inoculate a separate tube containing 10 ml of Brain Heart Infusion (BHI) broth for each wild type tactics 1 and 2. Incubate for 72+/−2 hours at 30° C.+/−2° C. • 2. Assume growth to be 10^9 cfu/ml. Since two cultures are being used, combine 5.5 ml of each culture added to 99 ml of cold Butterfield's Phosphate Buffered Water (PBW) to obtain 10^8 cfu/ml. • 3. Plate serial dilutions of the culture to get the starting count of the inoculum on Lactobacilli MRS Agar (MRSA). • 4. Add 1 ml of the diluted cocktail to 100 ml of cold test solution. • 5. Determine the population at time 0 and 4 hours. Plate serial dilutions using MRSA spread plates. • 6. Incubate the test solutions at 10° C.+/−2° C. for the duration of the experiment. • 7. Incubate the plates at 30° C.+/−2° C. for 72+/−2 hours. • 8. Count representative colonies and multiply by the dilution factor. Note: Each test solution should contain ˜10^8 cfu/ml.
In this experiment solutions were challenged with cultures of the black mold, the green mold/yeast combination, and the bacteria thought to be “lactic acid” bacteria. In this experiment, a brine control with no additive was neglected, but the data still indicate the strong effectiveness of the octanoic acid against yeast and mold.

[6] = after 4 hours at 10° C. in blue cheese brine, Table 16
[7] = after 4 hours in mozzarella cheese brine, Table 17
[8] = after 4 hours in blue cheese brine, Table 18
[9] = after 4 hours in blue cheese brine
[10] = after 4 hours in blue cheese brine, Table 21 (sodium octanoate experiment)
[11] = after 4 hours in mozzarella cheese brine, Table 19
[12] = Table 17, (est) = too numerous to count, estimated

SMILES | Yeast + Mold count [1, 6] [cfu/mL] | Green Mold + Yeast count [1] | Yeast + Mold count [1, 7] | Yeast Cocktail count [2, 6] [cfu/mL] | Yeast Cocktail count [2, 7] | Coliform count [3, 6] [cfu/mL] | Coliform count [3, 8] [cfu/mL] | Coliforms count [3, 9] | Pink Yeast count (Pink Yeast; [8]) [cfu/mL] | Pink Yeast count (Pink Yeast; [10]) [cfu/mL] | Pink Yeast count (Pink Yeast; [11]) [cfu/mL] | Coliform count [4, 12] | Coliform count ([4]; Table 19) | Black Mold count (black mold) [cfu/mL] | White Yeast count (White Yeast; [8]) [cfu/mL] | White Yeast count (White Yeast; [10]) [cfu/mL] | White Yeast count (White Yeast; [11]) [cfu/mL] | “Lactics” count [5]
CCCCCCCC(=O)O [250 ppm octanoic acid, octanoic acid] | <10 | <10 cfu/mL | 6.1 × 10^4 cfu/mL | <10 | 200 cfu/mL | <10 | <10 | <10 cfu/mL | <10 | <10 | <10 | 1.7 × 10^6 cfu/mL | 3.8 × 10^3 cfu/mL | <10 | <10 | <10 | <10 | <10 cfu/mL
CCCCCCCC(=O)O [62.5 ppm octanoic acid, octanoic acid] | – | 1.0 × 10^4 cfu/mL | – | – | – | – | – | 3.8 × 10^4 cfu/mL | – | <10 | – | – | – | <10 | – | 90 | – | 1.5 × 10^5 cfu/mL
CCCCCCCC(=O)O [500 ppm octanoic acid, octanoic acid] | <10 | <10 cfu/mL | 5.6 × 10^3 cfu/mL | <10 | <10 cfu/mL | <10 | <10 | <10 cfu/mL | <10 | <10 | 20 | 3.5 × 10^4 cfu/mL | 3.8 × 10^3 cfu/mL | <10 | <10 | <10 | <10 | <1 cfu/mL
CCCCCCCC(=O)O [125 ppm octanoic acid, octanoic acid] | 20 | <10 cfu/mL | 4.1 × 10^5 cfu/mL | <10 | 6.0 × 10^3 cfu/mL | 10 | <10 | <10 cfu/mL | <10 | <10 | <10 | ~3.0 × 10^6 (est) cfu/mL | 1.6 × 10^4 cfu/mL | <10 | <10 | <10 | 60 | 2.0 × 10^3 cfu/mL
